The target in this test is T1, Recombinant human Glo-I (rhGlo-I) (Homo sapiens, UniProt Q04760).
T1 construct: purchased R&D Systems Corporation
T1 sequence (Q04760 2-184 limits assumed): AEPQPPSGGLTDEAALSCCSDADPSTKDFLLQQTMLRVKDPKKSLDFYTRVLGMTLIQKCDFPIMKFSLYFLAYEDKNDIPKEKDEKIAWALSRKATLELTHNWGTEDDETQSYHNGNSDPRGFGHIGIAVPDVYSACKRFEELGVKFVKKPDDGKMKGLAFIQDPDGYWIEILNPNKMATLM
Briefly: In vitro Glo-I enzyme inhibition assay (spectrophotometric, 240 nm). The class given is biochemical. The arrangement: average inhibitory activity: dose or concentration left out as unconfirmed. The settings on record: for % Inhibition / inhibition at 1.25 µM / inhibition at 2.5 µM / inhibition at 5 µM / inhibition at 10 µM / inhibition at 0.625 µM: single replicates. How it is done: Glo-I inhibitory action was evaluated following the methodology described by Al-Balas et al.. Recombinant human Glo-I (rhGlo-I) was procured from R&D Systems Corporation and […] in sterile deionized water at a precise concentration of 0.5 mg/ml before being reconstituted. The reconstituted rhGlo-I was stored at -70 °C until further use. Dimethyl sulfoxide (DMSO) was used to dissolve the test compounds to produce stock solutions with a 10 mM concentration. The assay buffer required for the experiment was made by mixing 0.1 M sodium phosphate monobasic solution with 0.1 M sodium phosphate dibasic solution, resulting in a pH range of 7.0–7.2. The reduced glutathione and methylglyoxal solutions were combined with a sufficient 0.1 M sodium phosphate assay buffer volume to create the substrate combination. In a cuvette, the assay buffer, substrate solution, and Glo-I enzyme were combined with the synthesized products at the required concentration. […] The maximum absorbance (γmax) was recorded at 240 nm.
In this study, the inhibitory activity of all synthesized compounds against the Glo-I enzyme was evaluated in vitro using recombinant human Glo-I obtained from R&D Systems Corporation. The methodology previously described was employed, which involved measuring the inhibition of Glo-I activity and substrate hydrolysis using a spectrophotometer at 240 nm. […] The activity profile of the tested compounds against Glo-I is depicted in Figure 12.

Where [1] appears, read: concentration 0.625 µM, 0.625 µM.
Setting [2] is: from the % inhibition curve, 0.625-10 µM, read-out: Calculated IC50.
[3] abbreviates: rhGlo-I, 25 °C, pH 7.0-7.2, read-out: IC50.

“And” between values parts separate entries of the source, which are not always exact repeats. Equal values may be shown once. Read-outs that look alike come from different tables or passages of the source.

As usually defined, the % Inhibition is the percentage by which the read-out fell short of the control. Broadly, the inhibition is the share of the control response that was lost under treatment. Broadly, the IC50 is the concentration needed to halve the response being measured. `O=C(/C=C/c1ccc(O)c(O)c1)Nc1cccc2c1C(=O)c1ccccc1C2=O` [MQ1, (E)-3-(3,4-dihydroxyphenyl)-N-(9, 10-dioxo-9, 10-dihydroanthracen-1-yl) acrylamide]: the “% Inhibition” value is, setting by setting: under setting [1], 4.207% and 6.929% and 8.658%; (concentration 1.25 µM, 1.25 µM) 11.45% and 12.03%; (concentration 2.5 µM, 2.5 µM) 13.44% and 14.71%; (concentration 5 µM, 5 µM) 20.12% and 19.93%; (concentration 10 µM, 10 µM) 34.53% and 33.46%. For the same compound, the inhibition at 1.25 µM (concentration 1.25 µM) was found to be 12%. Moreover, the inhibition at 2.5 µM (concentration 2.5 µM) was 11.8%. For the same compound, where the note is “concentration 5 µM”, the inhibition at 5 µM is 18.8%. Moreover, the inhibition at 10 µM (concentration 10 µM) amounted to 33.4%. The IC50 under setting [2] was 27.9 µM and the IC50 under setting [3] is 27.9 µM.
As to `O=C(/C=C/c1ccc(O)c(O)c1)Nc1ccc2c(c1)C(=O)c1ccccc1C2=O` [MQ3, (E)-3-(3,4-dihydroxyphenyl)-N-(9, 10-dioxo-9, 10-dihydroanthracen-2-yl) acrylamide], the average inhibitory activity amounted to 96.63%. Also, the inhibition at 0.625 µM (concentration 0.625 µM) turned out to be 27.5%. Also, the “% Inhibition” value under setting [1] is 28.34% and 22.6726%. The inhibition at 1.25 µM (concentration 1.25 µM) was found to be 39.2%. In addition, the “% Inhibition” value (concentration 1.25 µM, 1.25 µM) was 42.53% and 40.76%. Moreover, the inhibition at 2.5 µM (concentration 2.5 µM) came to 69.6%. The “% Inhibition” value (concentration 2.5 µM, 2.5 µM) was 70.04% and 70.55%. Besides, the inhibition at 5 µM (concentration 5 µM) is 82.3%. Moreover, where the note is “concentration 5 µM, 5 µM”, the “% Inhibition” value is 84.9% and 85.44%. Also, the inhibition at 10 µM (concentration 10 µM) stood at 97.5%. In addition, the “% Inhibition” value (concentration 10 µM, 10 µM) is 93.8% and 98.6%. For the same compound, the IC50 under setting [2] is 1.46 µM. Moreover, under setting [3], the IC50 is 1.46 µM and 1.45 µM.
For the compound `O=C(C=Cc1ccccc1)Nc1ccc2c(c1)C(=O)c1ccccc1C2=O` [MQ4, N-(9, 10-dioxo-9, 10-dihydroanthracen-2-yl) cinnamamide], the “% Inhibition” value reads like this: under setting [1], 6.208% and 1.894% and 2.93%; (concentration 1.25 µM, 1.25 µM) 3.871% and 7.392%; (concentration 2.5 µM, 2.5 µM) 12.3% and 11.67%; (concentration 5 µM, 5 µM) 20.18% and 23.19%; (concentration 10 µM, 10 µM) 41.45% and 37.85%. Further, the inhibition at 1.25 µM (concentration 1.25 µM) is 5.03%. Also, under “concentration 2.5 µM”, the inhibition at 2.5 µM turned out to be 10.8%. Also, where the note is “concentration 5 µM”, the inhibition at 5 µM came to 19.4%. In addition, the inhibition at 10 µM (concentration 10 µM) worked out at 40.4%. Besides, the IC50 is 14.5 µM under setting [2] and 14.5 µM under setting [3].
On to `O=C(C=Cc1ccccc1)Nc1cccc2c1C(=O)c1ccccc1C2=O` [MQ5, N-(9, 10-dioxo-9, 10-dihydroanthracen-1-yl) cinnamamide], for which the inhibition at 0.625 µM (concentration 0.625 µM) was 8.82%. Further, the “% Inhibition” value is 8.55% and 10.84% under setting [1]; 9.974% and 12.33% (concentration 1.25 µM, 1.25 µM); 12.23% and 12.25% (concentration 2.5 µM, 2.5 µM); 12.81% and 20.99% (concentration 5 µM, 5 µM); 29% and 27.36% (concentration 10 µM, 10 µM). Further, the inhibition at 1.25 µM (concentration 1.25 µM) came out at 10.2%. The inhibition at 2.5 µM (concentration 2.5 µM) was determined as 14.3%. For the same compound, the inhibition at 5 µM (concentration 5 µM) was 11.6%. The inhibition at 10 µM (concentration 10 µM) was determined as 22%. Besides, the IC50 reads like this: under setting [2], 107 µM; under setting [3], 107 µM.
